# Literature values in publication PMC11133798, “Vosoritide treatment for children with hypochondroplasia: a phase 2 trial” (eClinicalMedicine, 2024).
# Tests used:
# [1] = tested on: subjects of trials to date; conditions: in vivo; cited from earlier work
# Description: We will perform a single arm, open‐ label, Phase I/II study of vosoritide in patients with the selected genetic causes of short stature identified above.
# [2] = tested on: patients with achondroplasia; conditions: cited from earlier work
sequence,measurement,setting,value
PGQEHPNARKYKGANKKGLSKGCFGLKLDRIGSMSGLGC (disulfide) [vosoritide],Serious hypersensitivity reactions,[1],no serious hypersensitivity reactions
same,Subjects having some form of injection site reaction,[1],~ 85%
same,Subjects with an event of hypotension in study 111-205,[1],3.3%
same,Subjects with hypotension documented on vital sign measurement,[1],~ 45%
same,Mean gain in height standard deviation score,"[2]; achondroplasia, 15 µg/kg, after 42 months of intervention, ref 2 (protocol list)",1.03 SD
same,Efficacy of 15 µg/kg/day dose versus 30 µg/kg/day dose,"[2]; annualized growth velocity, Phase II achondroplasia, ref 2 (protocol list)",equally efficacious to the 30 µg/kg/day dose
same,Symptomatic hypotensive episode,[2]; in vivo,a single patient
